Laboratory results published in US20250101062A1, “ANTIMICROBIAL PEPTIDES” (Board of Regents of the University of Nebraska, priority 2023, published 2025).
In brackets after ≈: the same amount, converted by molar mass. Where two headings read alike, the source gives them in different places. Where a SMILES comes first, the peptide text is derived from it.

Key:
E. coli E416-17 = format: cell-based, Escherichia coli
Method: (§1) Peptide activity against bacteria were tested using the CLSI standard procedure with minor modifications (Clinical and Laboratory Standards Institute (2018) Performance standards for antimicrobial susceptibility testing, 9th ed.; Mishra, et al. (2019) Proc. Natl. Acad. Sci., 116(27):13517-13522). In brief, a peptide concentration gradient with twofold dilution was made in the 96-well polystyrene microplate at 10 μL per well. Bacteria were grown to the exponential phase (i.e., optical density at 600 nm≈0.5), diluted to ˜10^5 CFU/mL in MHB, and partitioned into the 96-well microplate at 90 μL per well. The microplates were incubated at 37° C. overnight and read on a ChroMate® 4300 Microplate Reader at 600 nm (GMI, Ramsey, MN). The peptide concentration in the wells without bacterial growth is the minimal inhibitory concentration (MIC). As the convention, MIC values were represented as ranges.

A. baumannii B28-16 = format: cell-based, Acinetobacter baumannii; conditions: B28-16
Procedure, shortened: (§2)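 Peptides twofold serially diluted against exponential-phase resistant clinical isolates at ~10^5 CFU/mL in MHB (also diluted MHB, TSB or LB in one protocol), CLSI-based broth microdilution. Incubated overnight at 37° C., OD 600 nm read; MIC taken as lowest concentration without growth, reported as ranges.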

K. pneumoniae E406-17 = format: cell-based, Klebsiella pneumoniae
Method: The following resistant bacterial clinical strains were used in this study: S. aureus USA300 LAC, S. epidermidis 1457, E. coli E423-17, P. aeruginosa E411-17, K. pneumoniae E406-17, and A. baumannii B28-16. While the S. aureus USA300 strain is methicillin-resistant, most of the Gram-negative bacteria contain extended-spectrum beta-lactamase and are resistant to beta-lactam antibiotics. Peptide activity against bacteria was tested using an established lab protocol (Mishra, et al. (2017) Acta Biomater., 49:316-328). In brief, a peptide concentration gradient with twofold dilution was made in the 96-well polystyrene microplate at 10 μL per well. Bacteria were grown to the exponential phase (i.e., optical density at 600 nm≈0.5), diluted to ˜10^5 CFU/mL in different percentages of MHB, TSB, or LB, and partitioned into the 96-well microplate at 90 μL per well. […] They were diluted with autoclaved distilled water to obtain different percentages. The microplates were incubated at 37° C. overnight and read on a ChroMate™ 4300 microplate reader at 600 nm (GMI, Ramsey, MN). The peptide concentration in the wells without bacterial growth is the MIC. As is the convention, MIC values were represented as ranges.
as §1

human red blood cells = experiment: Hemolytic assay; format: cell-based
Method: The hemolytic effects of peptides were evaluated using a method with minor modifications (Lakshmaiah Narayana, et al. (2021) ACS Infect. Dis., 7:1795-1808). Human red blood cells (hRBCs, UNMC Blood Bank) were washed (3×) with blood bank saline (isotonic solution 0.90% w/v, Fisher). Cells were diluted to 2% using the saline solution, and aliquots of 90 μL were added to a 96-well polystyrene microplate containing 10 μL of serially diluted peptide solutions. After incubation at 37° C. for 1 hour, plates were centrifuged at 500 g for 5 minutes. Aliquots of the supernatant were transferred to a 96-well microplate. The amount of hemoglobin released was measured at 545 nm by using a ChroMate™ microplate reader. […] HC50 is defined as the concentration of the peptide that caused 50% lysis.
The hemolytic effects of peptides were evaluated (Narayana, et al. (2020) Proc. Natl. Acad. Sci., 117(32):19446-9454). In brief, human red blood cells (UNMC Blood Bank) were washed (3×) and diluted to 2% using the saline solution. Aliquots of 90 μL were mixed with 10 μL of serially diluted peptide solutions. After incubation at 37° C. for 1 hour, plates were centrifuged at 500 g for 5 minutes and aliquots of the supernatant were transferred to a new 96-well microplate to measure the amount of hemoglobin released at 545 nm (relative to 1% Triton® X-100) using a ChroMate® Microplate Reader.

P. aeruginosa E411-17 = experiment: microbe, parasite or virus in culture; format: cell-based, Pseudomonas aeruginosa; conditions: E411-17
Procedure, shortened: (§3)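 Broth microdilution with twofold peptide dilutions, using exponential-phase bacteria at about 10^5 CFU/mL in MHB, incubated overnight at 37 °C and read at OD600. MIC, reported as a range, is the peptide concentration with no growth. Some tests used diluted MHB/TSB/LB, adjusted pH, or added NaCl or human serum.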

S. epidermidis 1457 = experiment: microbe, parasite or virus in culture; format: cell-based, Staphylococcus epidermidis
Procedure, shortened: as §2

S. aureus USA300 LAC = experiment: microbe, parasite or virus in culture; format: cell-based, Staphylococcus aureus; conditions: for Antimicrobial activity (MIC): MRSA in MHB
Procedure, shortened: as §3

MRSA USA300 = experiment: Membrane permeabilization (propidium iodide); format: cell-based, Staphylococcus aureus; conditions: Example 1, 1×MIC
Method: The peptide ladder was prepared as described for the antibacterial assay with 10 μL of solution in a black COSTAR® 96-well plate. PI (MP Biomedicals, Solon, OH) was prepared in the dark and dissolved in dimethylsulfoxide (Thermo Fisher Scientific, NY) to 20 mM. This PI stock solution was further diluted to 1 mM with water, and 2 μL of 1 mM PI was added to each well. Exponential-phase MRSA USA300 was diluted to OD600 0.11 with TSB, and 88 μL was added to each well. The plate was incubated at 37° C. with continuous shaking in a FLUOstar® Omega (BMG LABTECH, NC) microplate reader. The sample was read every 5 minutes for 24 cycles with excitation and emission wavelengths of 584 and 620 nm, respectively.
Bacterial membrane permeation was conducted (Yeaman, et al. (1998) J. Clin. Invest., 101(1):178-87). In brief, the peptide ladder was prepared as described for the antibacterial assay with 10 μL in a black COSTAR 96-well plate. Propidium iodide (PI) (MP Biomedicals, Solon, OH) was prepared in the dark and dissolved in DMSO (Thermo Fisher Scientific, NY) to 20 mM. This PI stock solution was further diluted to 1 mM with water and 2 μL of 1 mM PI was added to each well. Exponential phase MRSA USA300 or P. aeruginosa E411-17 was diluted to OD600 0.11 with tryptic soy broth (TSB) and 88 μL was added to each well. The plate was incubated at 37° C. with continuous shaking in a FLUOstar® Omega (BMG LABTECH, NC) microplate reader. The sample was read every 5 minutes for 24 cycles with excitation and emission wavelengths at 584 nm and 620 nm, respectively.

[1] = Effect of MHB dilution on antibacterial activity of a panel of antibiotics; format: cell-based; conditions: MHB from 100 to 12.5%
Method: FIGS. 2A-2D show biofilm disruption activity of human LL-37 (FIGS. 2A and 2B) and 17BIPHE2 (FIGS. 2C and 2D) against the 24 hour preformed biofilms of S. aureus USA300 LAC in different MHB media: 12.5% MHB (FIGS. 2A and 2C) and 100% MHB (FIGS. 2B and 2D). FIGS. 2E-2H show the treatment outcome of LL-37 (FIGS. 2E and 2F) and 17BIPHE2 (FIGS. 2G and 2H) against the 24-hour preformed biofilms of E. coli E423-17 in different MHB media: 12.5% MHB (FIGS. 2E and 2G) and 100% MHB (FIGS. 2F and 2H). […] Growth curves of S. aureus USA 300 LAC (FIGS. 2J-2K) and P. aeruginosa 152 (FIGS. 2L-2M) in 12.5%, 25%, 50% and 100% MHB or TSB medium (curves from bottom to top).
The effects of MHB dilution on the antimicrobial activity of a panel of antibiotics was also compared (FIG. 2I).

E. coli E423-17 = experiment: Membrane permeabilization (propidium iodide); format: cell-based, Escherichia coli; conditions: Example 1, 1×MIC

Row | Compound | Minimal inhibitory concentration (MIC) E. coli E416-17 (E. coli E416-17) [µM] | Minimal inhibitory concentration (MIC) A. baumannii B28-16 (A. baumannii B28-16) [µM] | Minimal inhibitory concentration (MIC) K. pneumoniae E406-17 (K. pneumoniae E406-17) [µM] | HC10-based therapeutic index (HC10/MIC) (human red blood cells) | Hemolysis (HC10), 10% hemolytic concentration (human red blood cells) [µM] | Hemolysis (HC50), 50% hemolytic concentration (human red blood cells) [µM] | Minimal inhibitory concentration (MIC) P. aeruginosa E411-17 (P. aeruginosa E411-17) [µM] | Minimal inhibitory concentration (MIC) S. epidermidis 1457 (S. epidermidis 1457) [µM] | Minimal inhibitory concentration (MIC) S. aureus USA300 (S. aureus USA300 LAC) [µM] | Hemolysis (HC10), 10% hemolytic concentration (human red blood cells; red cells of human) [µM] | membrane permeabilization (MRSA USA300) | change in MIC with dilution of MHB [1] | membrane permeabilization (E. coli E423-17) | Antimicrobial activity (MIC) (S. aureus USA300 LAC; 10% serum) [µM] | Antimicrobial activity (MIC) (S. aureus USA300 LAC; 20% serum) [µM] | Antimicrobial activity (MIC) (S. aureus USA300 LAC; NaCl (150 mM)) [µM] | Antimicrobial activity (MIC) (S. aureus USA300 LAC; pH 6.3) [µM] | Antimicrobial activity (MIC) (S. aureus USA300 LAC; pH 7.2) [µM]
1 | N=C(N)NCCC[C@H](NC(=O)[C@@H](N)CCCCN)C(=O)N[C@@H](Cc1c[nH]c2ccccc12)C(=O)N[C@@H](Cc1ccc(-c2ccccc2)cc1)C(=O)N[C@@H](CCC(N)=O)C(=O)N[C@@H](Cc1c[nH]c2ccccc12)C(=O)N[C@@H](Cc1ccc(-c2ccccc2)cc1)C(=O)N[C@@H](CCCCN)C(N)=O [Bip-KR-8+] (HELM PEPTIDE1{K.R.W.[O=C([C@H](Cc1ccc(-c2ccccc2)cc1)N[*:1])[*:2]].Q.W.[O=C([C@H](Cc1ccc(-c2ccccc2)cc1)N[*:1])[*:2]].K.[am]}$$$$V2.0) | 16 (≈ 22 µg/mL) | 32 (≈ 44.1 µg/mL) | >32 | ~1 | 15 | > 200 | 16 to 32 | 4 (≈ 5.51 µg/mL) | 4 (≈ 5.51 µg/mL) |  |  |  |  |  |  |  |  | 
2 | CC(C)C[C@H](N)C(=O)N[C@@H](Cc1c[nH]c2ccccc12)C(=O)NCC(=O)N[C@@H](CCCNC(=N)N)C(=O)N[C@@H](Cc1ccccc1)C(=O)N[C@@H](Cc1ccccc1)C(=O)N[C@@H](CCCNC(=N)N)C(=O)N[C@@H](CCCCN)C(=O)N[C@@H](Cc1ccc(-c2ccccc2)cc1)C(=O)N[C@@H](CCCCN)C(N)=O [Bip-LL-10+] (HELM PEPTIDE1{L.W.G.R.F.F.R.K.[O=C([C@H](Cc1ccc(-c2ccccc2)cc1)N[*:1])[*:2]].K.[am]}$$$$V2.0) | 4 (≈ 5.84 µg/mL) | 8 (≈ 11.7 µg/mL) | >32 | 25 | 100 | > 200 | 4 (≈ 5.84 µg/mL) | 4 (≈ 5.84 µg/mL) | 2 to 4 |  |  |  |  |  |  |  |  | 
3 | CC(C)C[C@H](NC(=O)[C@H](Cc1ccccc1)NC(=O)[C@H](CCCNC(=N)N)NC(=O)[C@H](CCCCN)NC(=O)[C@H](Cc1ccc(-c2ccccc2)cc1)NC(=O)[C@@H](N)CCCNC(=N)N)C(=O)N[C@@H](CCCNC(=N)N)C(=O)N[C@@H](CC(N)=O)C(=O)N[C@@H](Cc1ccc(-c2ccccc2)cc1)C(=O)N[C@H](C(N)=O)C(C)C [Bip-RIK-10+] (HELM PEPTIDE1{R.[O=C([C@H](Cc1ccc(-c2ccccc2)cc1)N[*:1])[*:2]].K.R.F.L.R.N.[O=C([C@H](Cc1ccc(-c2ccccc2)cc1)N[*:1])[*:2]].V.[am]}$$$$V2.0) | 2 (≈ 3.07 µg/mL) | 2 to 4 | 2 to 4 | <4 |  | ~30 | 2 (≈ 3.07 µg/mL) | 2 (≈ 3.07 µg/mL) | 1 (≈ 1.53 µg/mL) | < 8 |  |  |  |  |  |  |  | 
4 | Gentamicin |  |  |  |  |  |  |  |  |  |  | no fluorescence increase | essentially no changes | did not permeate the E. coli membrane | 0.5 to 1 | 0.5 | 1 | 1 to 2 | 0.5
